Reference: US20240228488A1 (TAKEDA PHARMACEUTICAL COMPANY LIMITED, priority 2021, published 2024)

Key:
[1] = target: human activated kallikrein enzyme (Homo sapiens, UniProt P03952); assay: Plasma kallikrein inhibition, fluorogenic PFR-AMC substrate, 500 pM activated kallikrein format; type: biochemical; settings: 500 pM activated kallikrein, 300 uM PFR-AMC, 30 min preincubation, 10 min reaction; read-out: Primary Dose Response Assay: Average EC50
Procedure, shortened: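 Enzyme at 500 pM preincubated 30 min RT with inhibitors in 20 mM Tris pH 7.5, 1 mM EDTA, 150 mM NaCl, 0.1% PEG-400, 0.1% Triton X-100. Reaction started with 300 uM PFR-AMC, run 10 min RT; fluorescence read at 460 nm emission, 380 nm excitation. EC50 reported in ranges.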

[2] = target: T1, plasma kallikrein (Homo sapiens, UniProt P03952); assay: Neat human plasma assay, FXIIa contact pathway-activated, PFR-AMC substrate; type: biochemical; settings: citrated human plasma 78% final, 10 nM human FXIIa, 100 μM PFR-AMC; read-out: Human Plasma Assay: IC90
T1 construct: from tissue
Description: To analyze inhibition of plasma kallikrein in an ex vivo setting, the potency of compounds was measure in contact pathway-activated plasma assays. In a fluorogenic peptide substrate assay, test compounds dissolved in DMSO were added to sodium citrate collected human or rat plasma in a 96-well microplate. Alternatively, citrated plasma was collected from rats administered the compounds orally or by IV. 10 nM of human FXIIa (Enzyme Research Laboratories) diluted in pKal buffer (20 mM Tris-HCl, pH 7.5, 150 mM NaCl, 1 mM EDTA, 0.1% PEG-8000, and 0.1% Triton X-100) was added to the plasma, followed by the 100 μM of the profluorescent, synthetic plasma kallikrein substrate PFR-AMC (also diluted in pKal buffer). Final plasma concentration in the reaction was 78%. Fluorescence was immediately monitored by excitation/emission wavelengths of 360 nm/480 nm respectively over a period of 5 minutes in a microplate reader. The resulting linear increase in fluorescence emission (reflecting pKal proteolysis of PFR-AMC substrate) was fit to extract a proteolytic rate (fluorescent units over time), and this rate was subsequently plotted against compound inhibitor concentration. Resulting plots were fit to a standard 4-parameter IC50/IC90 equation to determine min/max values, IC50/90, and slope. All experimental steps were performed at room temperature. Table 50 provides results of the assay.

T1 sequence (P03952 391-638 limits assumed): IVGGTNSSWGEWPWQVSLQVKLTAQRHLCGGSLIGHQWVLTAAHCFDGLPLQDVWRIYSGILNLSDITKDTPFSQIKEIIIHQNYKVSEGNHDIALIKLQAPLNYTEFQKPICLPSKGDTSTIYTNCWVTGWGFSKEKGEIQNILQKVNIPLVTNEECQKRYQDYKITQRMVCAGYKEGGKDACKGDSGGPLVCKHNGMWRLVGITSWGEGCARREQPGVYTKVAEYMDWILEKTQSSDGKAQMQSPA
T1 sequence (P03952 20-390 partner limits assumed): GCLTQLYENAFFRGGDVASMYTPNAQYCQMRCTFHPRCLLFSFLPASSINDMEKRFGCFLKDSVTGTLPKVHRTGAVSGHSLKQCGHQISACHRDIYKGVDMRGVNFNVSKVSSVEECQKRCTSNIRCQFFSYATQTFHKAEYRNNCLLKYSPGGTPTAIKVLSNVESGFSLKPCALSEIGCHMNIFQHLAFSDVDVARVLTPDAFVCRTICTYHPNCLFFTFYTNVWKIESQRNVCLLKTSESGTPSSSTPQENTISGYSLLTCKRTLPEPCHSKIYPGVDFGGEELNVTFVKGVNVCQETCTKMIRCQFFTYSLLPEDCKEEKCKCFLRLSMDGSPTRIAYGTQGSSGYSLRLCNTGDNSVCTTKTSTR
Chain of human activated kallikrein enzyme (P03952 391-638 limits assumed): as the sequence (P03952 391-638 limits assumed) above
Chain of human activated kallikrein enzyme (P03952 20-390 partner limits assumed): as the sequence (P03952 20-390 partner limits assumed) above

EC50 [1]	IC90 [2]	Compound
< 1 nM	< 400 nM	CCN1CCN(c2cc(C3CC3)cn3cc(CNc4ccnc(NC(=O)[C@H]5C[C@@H]5c5cccc(Cl)c5)c4)nc23)CC1 [Example I-234, (1S,2S)-2-(3-chlorophenyl)-N-(4-(((6-cyclopropyl-8-(4-ethylpiperazin-1-yl)imidazo[1,2-a]pyridin-2-yl)methyl)amino)pyridin-2-yl)cyclopropane-1-carboxamide]
< 1 nM	1500 to 10000 nM	O=C(Nc1cc(NCc2cn3cc(C4CC4)cc(C(=O)N4CCOCC4)c3n2)ncn1)[C@H]1C[C@@H]1c1cccc(Cl)c1 [Example 300, (1S,2S)-2-(3-chlorophenyl)-N-(6-(((6-cyclopropyl-8-(morpholine-4-carbonyl)imidazo[1,2-a]pyridin-2-yl)methyl)amino)pyrimidin-4-yl)cyclopropane-1-carboxamide]
< 1 nM	400 to 1500 nM	Cc1cncc([C@H]2C[C@@H]2C(=O)Nc2cc(NCc3cn4cc(C5CC5)cc(N5CC(=O)N(C)C5=O)c4n3)ncn2)n1 (racemic) [Example 498, rac-(1S*,2S*)-N-(6-(((6-cyclopropyl-8-(3-methyl-2,4-dioxoimidazolidin-1-yl)imidazo[1,2-a]pyridin-2-yl)methyl)amino)pyrimidin-4-yl)-2-(6-methylpyrazin-2-yl)cyclopropane-1-carboxamide]
< 1 nM	400 to 1500 nM	CN1C(=O)CN(c2cc(C3CC3)cn3cc(COc4cnnc(NC(=O)[C@H]5C[C@@H]5c5cccc(Cl)c5)c4)nc23)C1=O [Example 557, (1S,2S)-2-(3-chlorophenyl)-N-(5-((6-cyclopropyl-8-(3-methyl-2,4-dioxoimidazolidin-1-yl)imidazo[1,2-a]pyridin-2-yl)methoxy)pyridazin-3-yl)cyclopropane-1-carboxamide]
< 1 nM	10000 to 48000 nM	CC(C)c1ccc2nc(CNc3ccnc(NC(=O)[C@H]4C[C@@H]4c4cccc(Cl)c4)c3)cn2c1 [Example 123, (1S,2S)-2-(3-chlorophenyl)-N-(4-(((6-isopropylimidazo[1,2-a]pyridin-2-yl)methyl)amino)pyridin-2-yl)cyclopropane-1-carboxamide]
1 to 10 nM	400 to 1500 nM	Cc1ccnc([C@H]2C[C@@H]2C(=O)Nc2ncnc(NCc3cn4cc(C5CC5)cc(N5CC(=O)N(C)C5=O)c4n3)c2F)n1 (racemic) [Example 412, rac-(1S*,2S*)-N-(6-(((6-cyclopropyl-8-(3-methyl-2,4-dioxoimidazolidin-1-yl)imidazo[1,2-a]pyridin-2-yl)methyl)amino)-5-fluoropyrimidin-4-yl)-2-(4-methylpyrimidin-2-yl)cyclopropane-1-carboxamide]
< 1 nM	400 to 1500 nM	CNC1CCN(c2cc(C3CC3)cn3cc(CNc4cc(NC(=O)[C@H]5C[C@@H]5c5cccc(Cl)c5)ncn4)nc23)C1 (stereo partly drawn) [Example I-16, (1S,2S)-2-(3-chlorophenyl)-N-(6-(((6-cyclopropyl-8-(3-(methylamino)pyrrolidin-1-yl)imidazo[1,2-a]pyridin-2-yl)methyl)amino)pyrimidin-4-yl)cyclopropane-1-carboxamide]
< 1 nM	< 400 nM	COCCN1CCN(c2cc(C3CC3)cn3cc(CNc4ccnc(NC(=O)[C@H]5C[C@@H]5c5cccc(Cl)c5)c4)nc23)CC1 [Example 599, (1S,2S)-2-(3-chlorophenyl)-N-(4-(((6-cyclopropyl-8-(4-(2-methoxyethyl)piperazin-1-yl)imidazo[1,2-a]pyridin-2-yl)methyl)amino)pyridin-2-yl)cyclopropane-1-carboxamide]
< 1 nM	< 400 nM	Cc1ccnc([C@H]2C[C@@H]2C(=O)Nc2cc(N[C@H](C)c3cn4cc(C5CC5)cc(N5CC6(COC6)OC5=O)c4n3)nc(C)n2)n1 [Example 437, (1S,2S)-N-(6-(((R)-1-(6-cyclopropyl-8-(6-oxo-2,5-dioxa-7-azaspiro[3.4]octan-7-yl)imidazo[1,2-a]pyridin-2-yl)ethyl)amino)-2-methylpyrimidin-4-yl)-2-(4-methylpyrimidin-2-yl)cyclopropane-1-carboxamide]
< 1 nM	< 400 nM	O=C1CN(c2cc(C3CC3)cn3cc(CNc4cc(NC(=O)[C@H]5C[C@@H]5c5cc(Cl)ccn5)ncn4)nc23)C(=O)N1 [Example 395, (1S,2S)-2-(4-chloropyridin-2-yl)-N-(6-(((6-cyclopropyl-8-(2,4-dioxoimidazolidin-1-yl)imidazo[1,2-a]pyridin-2-yl)methyl)amino)pyrimidin-4-yl)cyclopropane-1-carboxamide]
< 1 nM	< 400 nM	O=C(Nc1cc(NCc2cn3cc(C4CC4)cc(N4CCNCC4)c3n2)ncn1)[C@H]1C[C@@H]1c1cccc(Cl)c1 [Example 307, (1S,2S)-2-(3-chlorophenyl)-N-(6-(((6-cyclopropyl-8-(piperazin-1-yl)imidazo[1,2-a]pyridin-2-yl)methyl)amino)pyrimidin-4-yl)cyclopropane-1-carboxamide]
1 to 10 nM	10000 to 48000 nM	O=C(Nc1nsc(NCc2cn3cc(C4CC4)ccc3n2)n1)[C@H]1C[C@@H]1c1cc(Cl)ccn1 (racemic) [Example 614]
1 to 10 nM	< 400 nM	CN1C(=O)CN(c2cc(C3CC3)cn3cc([C@H]4C[C@H](O)CN4c4cc(NC(=O)[C@H]5C[C@@H]5c5cccc(Cl)c5)ncn4)nc23)C1=O [Example 480, (1S,2S)-2-(3-chlorophenyl)-N-(6-((2R,4S)-2-(6-cyclopropyl-8-(3-methyl-2,4-dioxoimidazolidin-1-yl)imidazo[1,2-a]pyridin-2-yl)-4-hydroxypyrrolidin-1-yl)pyrimidin-4-yl)cyclopropane-1-carboxamide]
< 1 nM	1500 to 10000 nM	O=C(Nc1cc(NCc2cn3cc(C4CC4)cc(C4(O)COC4)c3n2)ccn1)[C@H]1C[C@@H]1c1cccc(Cl)c1 (racemic) [Example I-242, rac-(1S*,2S*)-2-(3-chlorophenyl)-N-(4-(((6-cyclopropyl-8-(3-hydroxyoxetan-3-yl)imidazo[1,2-a]pyridin-2-yl)methyl)amino)pyridin-2-yl)cyclopropane-1-carboxamide]
1 to 10 nM	10000 to 48000 nM	CC(C)(O)c1cc(C2CC2)cn2cc(CNc3cc(NC(=O)[C@H]4C[C@@H]4c4cc(Cl)ccc4C#N)ncn3)nc12 (racemic) [Example 337, (rac-(1S*,2S*))-2-(5-chloro-2-cyanophenyl)-N-(6-(((6-cyclopropyl-8-(2-hydroxypropan-2-yl)imidazo[1,2-a]pyridin-2-yl)methyl)amino)pyrimidin-4-yl)cyclopropane-1-carboxamide]
< 1 nM	> 48000 nM	O=C(Nc1cc(NCc2cn3cc(C4CC4)ccc3n2)ccn1)[C@H]1C[C@@H]1c1cc(Cl)ccc1[N+](=O)[O-] (racemic) [Example I-223, rac-(1S*,2S*)-2-(5-chloro-2-nitrophenyl)-N-(4-(((6-cyclopropylimidazo[1,2-a]pyridin-2-yl)methyl)amino)pyridin-2-yl)cyclopropane-1-carboxamide]
< 1 nM	> 48000 nM	CC(O)c1cc(C2CC2)cn2cc(CNc3ccnc(NC(=O)[C@H]4C[C@@H]4c4cccc(Cl)c4)c3)nc12 (stereo partly drawn) [Example I-236, (1S,2S)-2-(3-chlorophenyl)-N-(4-(((6-cyclopropyl-8-(1-hydroxyethyl)imidazo[1,2-a]pyridin-2-yl)methyl)amino)pyridin-2-yl)cyclopropane-1-carboxamide]
< 1 nM	400 to 1500 nM	Cc1ccnc([C@H]2C[C@@H]2C(=O)Nc2ncc(C(F)(F)F)c(OCc3cn4cc(C5CC5)cc(N5CC(=O)N(C)C5=O)c4n3)n2)n1 (racemic) [Example 628, rac-(1S*,2S*)—N-(4-((6-cyclopropyl-8-(3-methyl-2,4-dioxoimidazolidin-1-yl)imidazo[1,2-a]pyridin-2-yl)methoxy)-5-(trifluoromethyl)pyrimidin-2-yl)-2-(4-methylpyrimidin-2-yl)cyclopropane-1-carboxamide]
1 to 10 nM	> 48000 nM	O=C(Nc1cc(NCc2cn3cc(C4CC4)cc(C4(F)COC4)c3n2)ncn1)[C@H]1C[C@@H]1c1cccc(Cl)c1 (racemic) [Example 64, rac-(1S*,2S*)-2-(3-chlorophenyl)-N-(6-(((6-cyclopropyl-8-(3-fluorooxetan-3-yl)imidazo[1,2-α]pyridin-2-yl)methyl)amino)pyrimidin-4-yl)cyclopropane-1-carboxamide]

Compound	EC50 [1]	IC90 [2]
CN1CCC(O)(c2cc(C3CC3)cn3cc(CNc4cc(NC(=O)[C@H]5C[C@@H]5c5cccc(Cl)c5)ncn4)nc23)CC1 [Example 401, (1S,2S)-2-(3-chlorophenyl)-N-(6-(((6-cyclopropyl-8-(4-hydroxy-1-methylpiperidin-4-yl)imidazo[1,2-a]pyridin-2-yl)methyl)amino)pyrimidin-4-yl)cyclopropane-1-carboxamide]	< 1 nM	400 to 1500 nM
